Assay results reported in article PMC9969401, “Discovery of 2-(3-Benzamidopropanamido)thiazole-5-carboxylate Inhibitors of the Kinesin HSET (KIFC1) and the Development of Cellular Target Engagement Probes” (Journal of Medicinal Chemistry, 2023).

Target: T1, HSET in DLD1 4N cells (Homo sapiens, UniProt Q9BW19)
T1 construct: overlapped with the signal from the antibody-probed endogenous HSET protein; endogenous in cells; host or cells: DLD1 4N cells
T1 sequence (Q9BW19 1-673): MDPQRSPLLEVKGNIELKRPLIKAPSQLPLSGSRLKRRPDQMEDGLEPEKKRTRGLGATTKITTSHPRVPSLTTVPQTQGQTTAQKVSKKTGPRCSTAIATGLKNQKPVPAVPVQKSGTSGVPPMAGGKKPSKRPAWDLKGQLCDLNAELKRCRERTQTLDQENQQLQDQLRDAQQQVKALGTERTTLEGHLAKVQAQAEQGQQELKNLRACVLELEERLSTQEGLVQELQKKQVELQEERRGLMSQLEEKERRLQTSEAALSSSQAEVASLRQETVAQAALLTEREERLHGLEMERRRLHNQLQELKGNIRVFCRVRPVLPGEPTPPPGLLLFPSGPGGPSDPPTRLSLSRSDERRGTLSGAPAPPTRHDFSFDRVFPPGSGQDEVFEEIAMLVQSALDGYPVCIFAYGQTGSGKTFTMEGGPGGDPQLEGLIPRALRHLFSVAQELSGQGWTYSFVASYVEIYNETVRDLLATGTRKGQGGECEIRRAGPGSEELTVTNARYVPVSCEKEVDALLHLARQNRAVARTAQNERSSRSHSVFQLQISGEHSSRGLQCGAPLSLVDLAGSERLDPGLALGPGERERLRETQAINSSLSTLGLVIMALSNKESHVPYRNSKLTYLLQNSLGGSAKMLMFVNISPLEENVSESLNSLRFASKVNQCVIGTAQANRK
Assay: Click probe localization target engagement imaging in DLD1 4N cells
Assay type: cell-based
Conditions: for Average Pixel intensity: DLD1 4N, Tz-Cy5 800nM
Protocol: The Cy-5 tetrazine dye selected for this experiment is not cell-permeable, thus fixation and permeabilization of cells were necessary prior to its addition. Experiments were conducted in DLD1 4N cells and, as a negative control, isogenic 2N DLD1 HSET KO cells in which HSET expression was prevented by the disruption of the HSET gene using CRISPR. Cells were treated first with proTAME for 2 h to accumulate mitotic events, followed by treatment with the TCO probe 40 for 45 min. The live cells were then fixed and permeabilized before treatment with the tetrazine-Cy5 dye and incubation to allow the IEDDA reaction to occur. Additionally, the cells were stained for the endogenous HSET protein using indirect immunofluorescence and imaged to observe the fluorescence from both the TCO probe and antibody-labeled HSET. […] A 3 μM concentration of the probe 40 gave an acceptable signal-to-noise ratio of around 2:1. Even under these optimal conditions, some residual uniform cytoplasmic Cy5 signal was observed within the cells. However, a clear Cy5 decoration of the mitotic spindle was seen, which overlapped with the signal from the antibody-probed endogenous HSET protein (Figures 2A and S6). […] We observed a 14–17-fold increase in signal in DLD1 4N cells treated with 40 relative to tetrazine-Cy5 alone. […] Comparing the intensity of click probe labeling coincident with the mitotic spindle in DLD1 4N cells to that in DLD1 HSET KO cells after both were treated with 40, we observed a twofold higher signal in the former.
Direct target engagement of active inhibitor 36 was measured by calculating its capacity to displace the TCO-containing probe 40. 4N DLD1 cells and DLD1 HSET KO cells (negative control) were plated in 96-well ibidi μ-Clear plates (IB-89626, ibidi). Cells were first treated for 2 h with 8 μM pro-TAME (I-440–01M, R&D system) to accumulate mitotic cells and were then treated with 8 μM MG-132 (S2619, SelleckChem) and 3 μM 40, alone or together with active inhibitor 36 in DMEM media with 1% FBS for 45 min. Cells were then washed three times in DMEM, with the second wash being incubated for 10 min to ensure the optimal reduction of unspecific compound binding. After an additional PBS wash, cells were then fixed in 4% PFA/PBS (15670799, Thermo Scientific) prior to incubation with 400 nM tetraszine-Cy5 (CLK-015-05, Jena Biosciences) in 1.5% FBS/PBS for 10 min at room temperature. Cells were permeabilized by the addition of 0.5% TritonX-100/PBS for 5 min before being stained overnight for Pericentrin (1:1500 ab28144 mouse anti-PCNT, Abcam) and KIFC1 (1:1500 12313S rabbit anti-KIFC1, Cell Signaling Technologies). Secondary antibodies Alexa Fluor 488 donkey antirabbit and Alexa Fluor 555 donkey antimouse (1:1500, A21206 and A31570, respectively, Life Technologies) were added together with 1 μg/mL DAPI (D9542, Sigma) in 1.5% FBS in PBS.
Plates were imaged at 40× using a Zeiss LSM980 confocal microscope with Airyscan 2. The subsequent analysis and quantification were performed using 3D image segmentation with the Arivis4D software. Mitotic cells were segmented by selecting for the highest density (integrated DAPI intensity/total volume), and the mitotic pole areas were segmented using the Pericentrin signal. The signal of the click probe (Cy5) and total KIFC1 (FITC) was measured on the mitotic pole area, and both were normalized to the control condition containing 40 probe alone. The ratio of probe per target (click probe pole integrated intensity signal/KIFC1 pole integrated intensity signal) was used to calculate the occupancy of the probe in the target protein and normalized to the control condition containing 40 probe alone (n > 100 for each replicate, two replicates per concentration point).

SMILES | displacement of TCO probe 40 from HSET in cells (in words) (competition with 3 μM 40, up to 10 μM 36) | Average Pixel intensity (5μM, Panel A: 3 quick washes at room temperature) | Average Pixel intensity (5μM, Panel B: 2 quick washes then 1 at 37 °C for 5 minutes) | Average Pixel intensity (5μM, Panel C: 2 quick washes then 1 at 37 °C for 10 minutes) | Average Pixel intensity (10μM, Panel A: 3 quick washes at room temperature) | Average Pixel intensity (10μM, Panel B: 2 quick washes then 1 at 37 °C for 5 minutes) | Average Pixel intensity (10μM, Panel C: 2 quick washes then 1 at 37 °C for 10 minutes)
CCCOC(=O)c1sc(NC(=O)C[C@H](CCCN(C)C)NC(=O)c2cccc(-c3noc(C)n3)c2)nc1C [Compound 36, Propyl (S)-2-(6-(Dimethylamino)-3-(3-(5-methyl-1,2,4-oxadiazol-3-yl)benzamido)hexanamido)-4-methylthiazole-5-carboxylate] | dose-dependent manner | – | – | – | – | – | –
CCCOC(=O)c1sc(NC(=O)C[C@H](CCCN(C)C(=O)O[C@@H]2CC/C=C/CCC2)NC(=O)c2cccc(-c3noc(C)n3)c2)nc1C [Compound 38, Propyl 2-((S)-6-(((((S,E)-Cyclooct-4-en-1-yl)oxy)carbonyl)(methyl)amino)-3-(3-(5-methyl-1,2,4-oxadiazol-3-yl)benzamido)hexanamido)-4-methylthiazole-5-carboxylate] | – | 5372 | 6057 | 4723 | 7167 | 7628 | 6337
